The source of these data is patent US8846001B2 (GE Healthcare Limited, priority 2009, dated 2014).

One assay has as its target T1, avidin (Gallus gallus, UniProt P02701).
T1 construct: avidin (lyophilised powder, from egg white); purchased Sigma-Aldrich; host or cells: egg white
Briefly: Avidin binding saturation in solution, percentage binding determined by HPLC. The following applies: 2-128 nmol ligand, 2 nmol avidin, 5 min, room temperature.

The next assay concerns porcine islets. To be noted: porcine islets in vitro; cited from earlier work.

T1 sequence (P02701 25-152): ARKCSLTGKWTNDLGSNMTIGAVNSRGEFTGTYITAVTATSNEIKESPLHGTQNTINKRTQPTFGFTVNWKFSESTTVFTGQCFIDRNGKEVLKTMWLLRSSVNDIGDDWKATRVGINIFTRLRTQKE
Procedure for avidin: The percentage binding was determined by HPLC analysis.
The incubation was carried out during 5 min at room temperature with varied ligand concentration resulting in ligand/avidin ratio of 0.25, 1, 4 and 16. Data are presented as mean±SD (n=2). […] The specific binding presented as the avidin consumption in percentage was plotted against the ratio of total molar concentration of added ligands and avidin. The result was analyzed by nonlinear regression using the GraphPad Prism Software.

For `O=C(O)CCCC[C@@H]1SC[C@@H]2NC(=O)N[C@@H]21` [Biotin, 5-[(3aS,4S,6aR)-2-oxohexahydro-1H-thieno[3,4-d]imidazol-4-yl]pentanoic acid], the “binding to avidin in solution (in words)” value at avidin is recorded as “highest binding”.
As for `OC[C@H]1OC(O)[C@H]([18F])[C@@H](O)[C@@H]1O` (some centres unmarked) [[^18F]FDG], the half-life of retention in the assay on porcine islets was 2.358 h.
